Assay results as given in patent US9981916B2 (Genentech, Inc., priority 2013, dated 2018).

Molecular target: T1, RORc ligand binding domain (Homo sapiens, UniProt P51449)
T1 construct: host or cells: E. coli
T1 sequence (P51449 269-508 limits assumed): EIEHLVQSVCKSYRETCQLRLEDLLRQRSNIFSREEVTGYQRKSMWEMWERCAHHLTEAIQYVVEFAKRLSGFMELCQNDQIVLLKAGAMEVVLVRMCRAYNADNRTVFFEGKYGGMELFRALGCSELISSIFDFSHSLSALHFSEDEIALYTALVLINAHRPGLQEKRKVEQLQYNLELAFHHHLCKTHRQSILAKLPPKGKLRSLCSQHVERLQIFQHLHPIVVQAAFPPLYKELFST
Test: In vitro RORc ligand binding assay (25-[3H]hydroxycholesterol displacement, filter binding)
Conditions: 6 nM 25-[3H]hydroxycholesterol, 0.6 ug/mL RORc receptor, 3 h at 25° C.
Summary of the method: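 Compounds in 5% DMSO, either dose-response or screened at 1 and 10 uM, competed with 6 nM 25-[3H]hydroxycholesterol for 0.6 ug/mL RORc over 3 h at 25° C (HEPES pH 7.4, NaCl, MgCl2, DTT, BSA buffer). Bound tracer was filter-harvested and counted; nonspecific binding came from 1 uM 25-hydroxycholesterol.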

| Compound | IC50 [nM] |
| --- | --- |
| Cc1nnc([C@]23CC[C@H](c4cc(-c5c(F)cccc5F)nnc42)C3(C)C)o1 [Example 103, (5S,8S)-3-(2,6-difluorophenyl)-9,9-dimethyl-8-(5-methyl-1,3,4-oxadiazol-2-yl)-5,6,7,8-tetrahydro-5,8-methanocinnoline] | 205 |
| COCC[C@]12CC[C@H](c3cc(-c4ccccc4F)nnc31)C2(C)C [Example 41, (5S,8S)-3-(2-fluorophenyl)-8-(2-methoxyethyl)-9,9-dimethyl-5,6,7,8-tetrahydro-5,8-methanocinnoline] | 54 |
| COCC1CN(C(=O)[C@@]23CC[C@@H](c4cc(-c5c(F)cccc5F)nnc42)C3(C)C)C1 [Example 137, ((5R,8R)-3-(2,6-difluorophenyl)-9,9-dimethyl-5,6,7,8-tetrahydro-5,8-methanocinnolin-8-yl)(3-(methoxymethyl)azetidin-1-yl)methanone] | 182 |
| CC(C)OC1CN(C(=O)[C@@]23CC[C@@H](c4cc(-c5c(F)cccc5F)nnc42)C3(C)C)C1 [Example 190, ((5R,8R)-3-(2,6-difluorophenyl)-9,9-dimethyl-5,6,7,8-tetrahydro-5,8-methanocinnolin-8-yl)(3-isopropoxyazetidin-1-yl)methanone] | 1840 |
| CCN(C[C@]12CC[C@H](c3cc(-c4c(F)cccc4F)nnc31)C2(C)C)C(=O)CCC(N)=O [Example 342, N1-(((5S,8R)-3-(2,6-difluorophenyl)-9,9-dimethyl-5,6,7,8-tetrahydro-5,8-methanocinnolin-8-yl)methyl)-N1-ethylsuccinamide] | 28 |
| Cc1cnn(C[C@]23CC[C@H](c4cc(-c5ccccc5F)nnc42)C3(C)C)c1 [Example 47, (5S,8R)-3-(2-fluorophenyl)-9,9-dimethyl-8-[(4-methyl-1H-pyrazol-1-yl)methyl]-5,6,7,8-tetrahydro-5,8-methanocinnoline] | 267 |
| CC1(C)[C@H]2CC[C@]1(c1nnc(C(F)F)o1)c1nnc(-c3c(F)cccc3F)cc12 [Example 138, 2-(difluoromethyl)-5-((5R,8R)-3-(2,6-difluorophenyl)-9,9-dimethyl-5,6,7,8-tetrahydro-5,8-methanocinnolin-8-yl)-1,3,4-oxadiazole] | 170 |
| CC1(C)[C@H]2CC[C@]1(CN1CCOCC1)c1nnc(-c3c(F)cccc3F)cc12 [Example 56, (5R,8S)-3-(2,6-difluorophenyl)-9,9-dimethyl-8-(morpholin-4-ylmethyl)-5,6,7,8-tetrahydro-5,8-methanocinnoline] | 252 |
| CC1(C)[C@@H]2C[C@H](F)[C@@]1(C)c1nnc(-c3ccccc3F)cc12 [Example 32, (5S,7S,8R)-7-fluoro-3-(2-fluorophenyl)-8,9,9-trimethyl-5,6,7,8-tetrahydro-5,8-methanocinnoline] | 969 |
| Cc1nnc(OC[C@@]23CC[C@@H](c4cc(-c5c(F)cccc5F)nnc42)C3(C)C)o1 [Example 143, 2-(((5R,8R)-3-(2,6-difluorophenyl)-9,9-dimethyl-5,6,7,8-tetrahydro-5,8-methanocinnolin-8-yl)methoxy)-5-methyl-1,3,4-oxadiazole] | 286 |

Other lines, results leading:

| IC50 [nM] | Compound |
| --- | --- |
| 139 | CNC(=O)[C@]12CC[C@H](c3cc(-c4c(F)cccc4F)nnc31)C2(C)C [Example 53, (5S,8S)-3-(2,6-difluorophenyl)-N,9,9-trimethyl-6,7-dihydro-5,8-methanocinnoline-8(5H)-carboxamide] |
| 366 | CC1(C)[C@@H]2CC[C@@]1(Cn1cccn1)c1nnc(-c3ccccc3F)cc12 [Example 27, (5S,8R)-3-(2-fluorophenyl)-9,9-dimethyl-8-(1H-pyrazol-1-ylmethyl)-5,6,7,8-tetrahydro-5,8-methanocinnoline] |
| 10 | CCN(C[C@@]12CC[C@@H](c3cc(-c4c(F)cccc4F)nnc31)C2(C)C)c1nnc(C(F)(F)F)o1 [Example 303, N-(((5R,8S)-3-(2,6-difluorophenyl)-9,9-dimethyl-5,6,7,8-tetrahydro-5,8-methanocinnolin-8-yl)methyl)-N-ethyl-5-(trifluoromethyl)-1,3,4-oxadiazol-2-amine] |
| 15 | CC(=O)OC[C@]12CC[C@H](c3cc(-c4c(F)cccc4Cl)nnc31)C2(C)C [Example 22, [(5S,8S)-3-(2-chloro-6-fluorophenyl)-9,9-dimethyl-6,7-dihydro-5,8-methanocinnolin-8(5H)-yl]methyl acetate] |
| 199 | CC1(C)[C@H]2CC[C@]1(Cn1ccccc1=O)c1nnc(-c3c(F)cccc3F)cc12 [Example 121, 1-{[(5R,8S)-3-(2,6-difluorophenyl)-9,9-dimethyl-6,7-dihydro-5,8-methanocinnolin-8(5H)-yl]methyl}pyridin-2(1H)-one] |
| 1220 | Cc1c(-c2ccccc2F)nnc2c1[C@H]1CC[C@]2(C)C1(C)C [Example 33, (5S,8R)-3-(2-fluorophenyl)-4,8,9,9-tetramethyl-5,6,7,8-tetrahydro-5,8-methanocinnoline] |
| 1700 | CC1(C)[C@H]2C(=O)C[C@]1(C)c1nnc(-c3ccccc3F)cc12 [Example 127, (5R,8S)-3-(2-fluorophenyl)-8,9,9-trimethyl-7,8-dihydro-5,8-methanocinnolin-6(5H)-one] |
| 528 | CC1(C)[C@@H]2CC[C@@]1(C(=O)NCC(F)F)c1nnc(-c3c(F)cccc3F)cc12 [Example 210, (5S,8S)-N-(2,2-difluoroethyl)-3-(2,6-difluorophenyl)-9,9-dimethyl-5,6,7,8-tetrahydro-5,8-methanocinnoline-8-carboxamide] |
| 3890 | CC1(C)[C@H]2CC[C@]1(C(=O)N1CCc3cc(S(C)(=O)=O)ccc31)c1nnc(-c3ccccc3F)cc12 (stereo in doubt) [Example 170, ((5R,8R)-3-(2-fluorophenyl)-9,9-dimethyl-5,6,7,8-tetrahydro-5,8-methanocinnolin-8-yl)(5-(methylsulfonyl)indolin-1-yl)methanone] |
| 1500 | CC1(C)[C@H]2CC[C@]1(n1cnnc1)c1nnc(-c3c(F)cccc3F)cc12 [Example 107, (5R,8R)-3-(2,6-difluorophenyl)-9,9-dimethyl-8-(4H-1,2,4-triazol-4-yl)-5,6,7,8-tetrahydro-5,8-methanocinnoline] |
| 201 | CC1(C)[C@H]2CC[C@]1(N1CCCC1=O)c1nnc(-c3c(F)cccc3F)cc12 [Example 109, 1-[(5R,8R)-3-(2,6-difluorophenyl)-9,9-dimethyl-6,7-dihydro-5,8-methanocinnolin-8(5H)-yl]pyrrolidin-2-one] |
| 226 | CC1(C)[C@H]2CC[C@]1(CN(CCO)C(N)=O)c1nnc(-c3c(F)cccc3F)cc12 [Example 283, 1-(((5R,8S)-3-(2,6-difluorophenyl)-9,9-dimethyl-5,6,7,8-tetrahydro-5,8-methanocinnolin-8-yl)methyl)-1-(2-hydroxyethyl)urea] |
| 26 | CCN(C[C@@]12CC[C@@H](c3cc(-c4c(F)cccc4F)nnc31)C2(C)C)C(N)=O [Example 159, 1-(((5R,8S)-3-(2,6-difluorophenyl)-9,9-dimethyl-5,6,7,8-tetrahydro-5,8-methanocinnolin-8-yl)methyl)-1-ethylurea] |
| 238 | C[C@H]1CCCN1C(=O)[C@]12CC[C@H](c3cc(-c4c(F)cccc4F)nnc31)C2(C)C [Example 234, ((5S,8S)-3-(2,6-difluorophenyl)-9,9-dimethyl-5,6,7,8-tetrahydro-5,8-methanocinnolin-8-yl)((S)-2-methylpyrrolidin-1-yl)methanone] |
